The supplement of paper PMC10307832

Key:
Assay in all cases: relative viability (nuclei count vs DMSO), 5 days (fraction); higher = more cells survive
[1] = compound: N#CC1(c2ccc(NC(=O)c3cccnc3NCc3ccncc3)cc2)CCCC1 [Apatinib] + CS(=O)(=O)CCNCc1ccc(-c2ccc3ncnc(Nc4ccc(OCc5cccc(F)c5)c(Cl)c4)c3c2)o1 [Lapatinib] (partner 2 µM)
Outline: (§1)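 A single step with final 0.05% Triton X-100, 1% formaldehyde and 1 ug/ml Hoechst fixed the cells and stained nuclei 5 days after treatment. Lung cancer cell lines in 1536-well plates had been treated by pin tool the day after seeding with one drug alone or a fixed anchor-drug dose plus five library-drug doses (not always all listed) in √10 steps, and nuclei were counted on 4× images. Relative viability is the ratio of nuclei in treated wells to nuclei in vehicle wells, taken as the median of duplicate plates.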

[2] = compound: CN(C)C(=N)NC(=N)N [Metformin] + COc1cc2c(Oc3ccc(NC(=O)C4(C(=O)Nc5ccc(F)cc5)CC4)cc3F)ccnc2cc1OCCCN1CCOCC1 [Foretinib] (partner 0.25 µM)
Outline: as §1

[3] = compound: N#CC1(c2ccc(NC(=O)c3cccnc3NCc3ccncc3)cc2)CCCC1 [Apatinib] + COc1cccc2cc(-c3nc([C@H]4CC[C@H](C(=O)O)CC4)n4ncnc(N)c34)[nH]c12 [OSI-027] (partner 0.5 µM)
Outline: as §1

[4] = compound: N#CC1(c2ccc(NC(=O)c3cccnc3NCc3ccncc3)cc2)CCCC1 [Apatinib] + Nc1nc2[nH]cc(CCc3ccc(C(=O)N[C@@H](CCC(=O)O)C(=O)O)cc3)c2c(=O)[nH]1 [Pemetrexed] (partner 0.2 µM)
Outline: as §1

## SK-MES-1
[1]; first compound 0.08 µM
  relative viability: 0.473
[1]; first compound 0.253 µM
  relative viability: 0.473
[1]; first compound 0.8 µM
  relative viability: 0.512
[1]; first compound 2.53 µM
  relative viability: 0.414
[1]; first compound 8 µM
  relative viability: 0.502
[2]; first compound 10 µM
  relative viability: 0.915
[2]; first compound 31.62 µM
  relative viability: 0.888
[2]; first compound 100 µM
  relative viability: 0.874
[2]; first compound 316.23 µM
  relative viability: 0.912
[2]; first compound 1000 µM
  relative viability: 1.18
[3]; first compound 0.08 µM
  relative viability: 0.589
[3]; first compound 0.253 µM
  relative viability: 0.585
[3]; first compound 0.8 µM
  relative viability: 0.6
[3]; first compound 2.53 µM
  relative viability: 0.496
[3]; first compound 8 µM
  relative viability: 0.37
[4]; first compound 0.08 µM
  relative viability: 0.976
[4]; first compound 0.253 µM
  relative viability: 0.915
[4]; first compound 0.8 µM
  relative viability: 0.937
[4]; first compound 2.53 µM
  relative viability: 0.757
[4]; first compound 8 µM
  relative viability: 0.568

## NCI-H2405
[1]; first compound 0.08 µM
  relative viability: 0.959
[1]; first compound 0.253 µM
  relative viability: 1.3
[1]; first compound 0.8 µM
  relative viability: 1.1
[1]; first compound 2.53 µM
  relative viability: 0.975
[1]; first compound 8 µM
  relative viability: 0.992
[2]; first compound 10 µM
  relative viability: 0.936
[2]; first compound 31.62 µM
  relative viability: 1.06
[2]; first compound 100 µM
  relative viability: 1.11
[2]; first compound 316.23 µM
  relative viability: 1.01
[2]; first compound 1000 µM
  relative viability: 1.09
[3]; first compound 0.08 µM
  relative viability: 0.621
[3]; first compound 0.253 µM
  relative viability: 0.579
[3]; first compound 0.8 µM
  relative viability: 0.714
[3]; first compound 2.53 µM
  relative viability: 0.604
[3]; first compound 8 µM
  relative viability: 0.626
[4]; first compound 0.08 µM
  relative viability: 1.15
[4]; first compound 0.253 µM
  relative viability: 1.1
[4]; first compound 0.8 µM
  relative viability: 1.08
[4]; first compound 2.53 µM
  relative viability: 0.898
[4]; first compound 8 µM
  relative viability: 0.867

## NCI-H1734
[1]; first compound 0.08 µM
  relative viability: 1.14
[1]; first compound 0.253 µM
  relative viability: 1.13
[1]; first compound 0.8 µM
  relative viability: 1.06
[1]; first compound 2.53 µM
  relative viability: 0.871
[1]; first compound 8 µM
  relative viability: 0.909
[2]; first compound 10 µM
  relative viability: 0.844
[2]; first compound 31.62 µM
  relative viability: 0.896
[2]; first compound 100 µM
  relative viability: 0.95
[2]; first compound 316.23 µM
  relative viability: 0.798
[2]; first compound 1000 µM
  relative viability: 0.935
[3]; first compound 0.08 µM
  relative viability: 0.597
[3]; first compound 0.253 µM
  relative viability: 0.597
[3]; first compound 0.8 µM
  relative viability: 0.578
[3]; first compound 2.53 µM
  relative viability: 0.495
[3]; first compound 8 µM
  relative viability: 0.453
[4]; first compound 0.08 µM
  relative viability: 0.452
[4]; first compound 0.253 µM
  relative viability: 0.456
[4]; first compound 0.8 µM
  relative viability: 0.429
[4]; first compound 2.53 µM
  relative viability: 0.403
[4]; first compound 8 µM
  relative viability: 0.255

## NCI-H1915
[1]; first compound 0.08 µM
  relative viability: 1.04
[1]; first compound 0.253 µM
  relative viability: 0.94
[1]; first compound 0.8 µM
  relative viability: 0.892
[1]; first compound 2.53 µM
  relative viability: 0.802
[1]; first compound 8 µM
  relative viability: 0.935
[2]; first compound 31.62 µM
  relative viability: 1.04
[2]; first compound 100 µM
  relative viability: 1.15
[2]; first compound 316.23 µM
  relative viability: 1.07
[2]; first compound 1000 µM
  relative viability: 1.18
[3]; first compound 0.08 µM
  relative viability: 0.67
[3]; first compound 0.253 µM
  relative viability: 0.614
[3]; first compound 0.8 µM
  relative viability: 0.672
[3]; first compound 2.53 µM
  relative viability: 0.537
[3]; first compound 8 µM
  relative viability: 0.503
[4]; first compound 0.08 µM
  relative viability: 0.503
[4]; first compound 0.253 µM
  relative viability: 0.493
[4]; first compound 0.8 µM
  relative viability: 0.512
[4]; first compound 2.53 µM
  relative viability: 0.408
[4]; first compound 8 µM
  relative viability: 0.392

## NCI-H2228
[1]; first compound 0.08 µM
  relative viability: 1.01
[1]; first compound 0.253 µM
  relative viability: 1.05
[1]; first compound 0.8 µM
  relative viability: 0.986
[1]; first compound 2.53 µM
  relative viability: 0.835
[1]; first compound 8 µM
  relative viability: 0.644
[2]; first compound 10 µM
  relative viability: 0.804
[2]; first compound 31.62 µM
  relative viability: 0.862
[2]; first compound 100 µM
  relative viability: 1.09
[2]; first compound 316.23 µM
  relative viability: 0.671
[2]; first compound 1000 µM
  relative viability: 0.768
[3]; first compound 0.08 µM
  relative viability: 0.472
[3]; first compound 0.253 µM
  relative viability: 0.761
[3]; first compound 0.8 µM
  relative viability: 0.547
[3]; first compound 2.53 µM
  relative viability: 0.429
[3]; first compound 8 µM
  relative viability: 0.448
[4]; first compound 0.08 µM
  relative viability: 0.324
[4]; first compound 0.253 µM
  relative viability: 0.312
[4]; first compound 0.8 µM
  relative viability: 0.356
[4]; first compound 2.53 µM
  relative viability: 0.208
[4]; first compound 8 µM
  relative viability: 0.192

## NCI-H650
[1]; first compound 0.08 µM
  relative viability: 0.799
[1]; first compound 0.253 µM
  relative viability: 0.982
[1]; first compound 0.8 µM
  relative viability: 0.784
[1]; first compound 2.53 µM
  relative viability: 0.74
[1]; first compound 8 µM
  relative viability: 0.583
[2]; first compound 10 µM
  relative viability: 1.18
[2]; first compound 31.62 µM
  relative viability: 1.31
[2]; first compound 100 µM
  relative viability: 1.23
[2]; first compound 316.23 µM
  relative viability: 1.24
[2]; first compound 1000 µM
  relative viability: 1.18
[3]; first compound 0.08 µM
  relative viability: 0.493
[3]; first compound 0.253 µM
  relative viability: 0.491
[3]; first compound 0.8 µM
  relative viability: 0.446
[3]; first compound 2.53 µM
  relative viability: 0.381
[3]; first compound 8 µM
  relative viability: 0.388
[4]; first compound 0.08 µM
  relative viability: 1.02
[4]; first compound 0.253 µM
  relative viability: 0.924
[4]; first compound 0.8 µM
  relative viability: 0.89
[4]; first compound 2.53 µM
  relative viability: 0.799
[4]; first compound 8 µM
  relative viability: 0.597

## NCI-H2009
[1]; first compound 0.08 µM
  relative viability: 0.993
[1]; first compound 0.253 µM
  relative viability: 0.893
[1]; first compound 0.8 µM
  relative viability: 0.863
[1]; first compound 2.53 µM
  relative viability: 0.795
[1]; first compound 8 µM
  relative viability: 0.538
[2]; first compound 10 µM
  relative viability: 1.21
[2]; first compound 31.62 µM
  relative viability: 1.31
[2]; first compound 100 µM
  relative viability: 1.31
[2]; first compound 316.23 µM
  relative viability: 1.13
[2]; first compound 1000 µM
  relative viability: 1.04
[3]; first compound 0.08 µM
  relative viability: 0.796
[3]; first compound 0.253 µM
  relative viability: 0.617
[3]; first compound 0.8 µM
  relative viability: 0.536
[3]; first compound 2.53 µM
  relative viability: 0.337
[3]; first compound 8 µM
  relative viability: 0.193
[4]; first compound 0.08 µM
  relative viability: 1.07
[4]; first compound 0.253 µM
  relative viability: 0.996
[4]; first compound 0.8 µM
  relative viability: 0.902
[4]; first compound 2.53 µM
  relative viability: 0.879
[4]; first compound 8 µM
  relative viability: 0.661

## NCI-H23
[1]; first compound 0.08 µM
  relative viability: 1.54
[1]; first compound 0.253 µM
  relative viability: 1.2
[1]; first compound 0.8 µM
  relative viability: 0.959
[1]; first compound 2.53 µM
  relative viability: 1.04
[1]; first compound 8 µM
  relative viability: 0.905
[2]; first compound 10 µM
  relative viability: 0.925
[2]; first compound 31.62 µM
  relative viability: 1.1
[2]; first compound 100 µM
  relative viability: 1.01
[2]; first compound 316.23 µM
  relative viability: 0.953
[2]; first compound 1000 µM
  relative viability: 1.08
[3]; first compound 0.08 µM
  relative viability: 0.637
[3]; first compound 0.253 µM
  relative viability: 0.658
[3]; first compound 0.8 µM
  relative viability: 0.535
[3]; first compound 2.53 µM
  relative viability: 0.46
[3]; first compound 8 µM
  relative viability: 0.377
[4]; first compound 0.08 µM
  relative viability: 0.747
[4]; first compound 0.253 µM
  relative viability: 0.855
[4]; first compound 0.8 µM
  relative viability: 0.677
[4]; first compound 2.53 µM
  relative viability: 0.57
[4]; first compound 8 µM
  relative viability: 0.439
